Test results taken from paper PMC4113265 (Journal of Natural Products, 2014).

Key:
MIA PaCa-2 cells = assay: MTT antiproliferation/cytotoxicity assay; type: cell-based, human; conditions: MIA PaCa-2, MTT, concentration-response curves (Figure 2A)
[1] = freshly prepared rat serum; cited from earlier work
[2] = cited from earlier work

Substance	potency relative to 1 in MIA PaCa-2 cells (MIA PaCa-2 cells)	half-life (t1/2) in serum [1] [min]	half-life (t1/2) in whole blood [2] [min]
apicidin	significantly less active than 1	–	–
chlamydocin	–	8.7	0.68 to 3.6
trapoxin A	comparable potency to 1	–	–
